Laboratory results published in patent US8932627B2, “Liposomal compositions of glucocorticoid and glucocorticoid derivatives” (Yissum Research Development Company of the Hebrew …, priority 2004, dated 2015).

Experiments:
[1] = tested on: J6456 lymphoma cells (mouse T-cell lymphoma); experiment: Survival of mice injected i.p. with J6456 lymphoma cells; assay type: in vivo, BALB/C mice; conditions: free-MPS days 5, 9, 12, SSL-MPS days 5, 9, 12, 16
Procedure: At day 1 of the experiment BALB/C mice were injected i.p. with 1 million J6456 lymphoma cells (mouse T-cell lymphoma) then mice were divided into groups and treated by i.v. injections with free-MPS or SSL-MPS according to the following treatment schedule (Table 9).

[2] = tested on: BCL-1 (mouse B cell lymphoid leukemia); experiment: Survival of BCL-1 tumor bearing mice; assay type: in vivo, BALB/C mice
Procedure: In a further assay, survival of BCL-1 (mouse B cell lymphoid leukemia) tumor bearing mice was determined. […] Then, the mice were divided into groups and treated at days 5, 9, 12, 16, by i.v. injections, with the following treatment formulations: […]
Group I—5 mg/kg BW free-MPS;
Group II—25 mg/kg BW free-MPS;
Group III—5 mg/kg BW SSL-MPS;
Group IV—50 mg/kg BW SSL-MPS.

BCL-1 lymphoma cells = experiment: Sensitivity of BCL-1 cell line to MPS; assay type: cell-based, mouse
[3] = State of aggregation (turbidity, light scattering at 90°) of MPS as function of pH; assay type: physicochemical
Procedure: Aggregation of MPS was determined from the change in turbidity measured as intensity of light scattered at 90° to excitation beam using a spectrofluormeter under conditions that MPS lack absorbance (excitation and emission at the same wavelength Ex=600 nm Em=600 nm). There is a large increase in the light scattered by MPS solution/dispersion due to formation of aggregates.
The intensity of scattered light (at 90° to the excitation), also defined as turbidity is proportional to concentration and to the size of the aggregates. [Zuidam, N. J. and Barenholz, Y., Biochim. Biophys. Acta 1368:115-128 (1998)]. The state of aggregation of MPS was tested in the following manner: To quartz cuvette MPS (2 ml) at concentration of ˜6.5 mg/ml MPS was added. The solution was tittered with HCl (1.756M) and light scattering using excitation and emission at (both at 600 nm with attenuation of 1%) and pH of the solution was monitored.

[4] = Precipitation of MPS by calcium ion (Ca-acetate solution); assay type: physicochemical; conditions: pH 4.5; 600 mOsm Ca-acetate, 63° C., 5 mg/ml MPS, 40 minutes
Procedure: To 600 mOsm Ca-acetate solution at 63° C. and at different pH points MPS was added at final concentration of 5 mg/ml, then mixed solution was incubated for 40 minutes after which the solution was centrifuged and the supernatant was analyzed using HPLC.

[5] = 26° C.; MPS 0.785-30 mM
Procedure: Surface tension was measured using μtrouge S (Kibron Inc., Helsinki Finland). A solution containing GC derivative (300 μL) was placed in the well after calibration and zeroing of the sensor using pure water and air. The measurement was performed at 26° C.

[6] = tested on: Experimental Autoimmune Encephalomyelitis (EAE); experiment: Treatment of acute EAE (PLP 139-151 induced) with SSL-MPS, single injection; assay type: in vivo, SJL female mice; conditions: 50 mg/kg BW, 1 injection day 14, follow up 3 weeks
[7] = tested on: Experimental Autoimmune Encephalomyelitis (EAE); experiment: Treatment of severe disease burden in acute EAE (PLP induced); assay type: in vivo, SJL female mice
Procedure: In order to boost the immune system Pertussis Toxin (PT) 150 ng were injected intraperitoneally (i.p.) to the mice on the first day and 48 hours later.
Each mouse was examined daily for clinical signs of EAE using the following Table 4:
For mice showing a severe disease burden (determined by summing the scores of each of the 10 mice in the group and calculating the mean score per day, according to the following equation: Σtotal score of each mouse per day/number of mice in the group) a different treatment was applied. Specifically, after immunization as described above, mice were treated with 50 mg/kg BW SSL-MPS (days 10, 14, 18) or with free-MPS 50 mg/kg BW (days 10, 14, 18) or dextrose 5% (days 10, 14, 18). For each group, the incidence, MMS=mean maximal score; MDD=mean disease duration (days); MDO=mean day of onset and mean score were determined Table 7. Further, for each group the mean clinical scores at each time point was determined (FIG. 6B) as well as the survival curve (FIG. 6A).

[8] = ex vivo stability, after 24 hours, passively loaded liposomes; cited from earlier work

Q: For `C[C@H]1C[C@@H]2[C@H]([C@@H](O)C[C@@]3(C)[C@H]2CC[C@]3(O)C(=O)COC(=O)CCC(=O)[O-])[C@@]2(C)C=CC(=O)C=C12.[Na+]` [MPS, methylprednisolone sodium hemisuccinate], which Median survival ([1]; 15 mg/kg BW i.v.) is on record?
A: 16

Q: And the Median survival ([1]; 50 mg/kg BW i.v.)?
A: 16

Q: What about the Survival median ([2]; 5 mg/kg BW i.v. days 5, 9, 12, 16) of the same compound?
A: 19

Q: What about the Survival median ([2]; 25 mg/kg BW i.v. days 5, 9, 12, 16) of the same compound?
A: 19

Q: And the “sensitivity of the cell line” value (BCL-1 lymphoma cells; BCL-1)?
A: highly sensitive

Q: And the IC50 (BCL-1 lymphoma cells; BCL-1 lymphoma cells (B cell line))?
A: in the nmolar range

Q: What about the “state of aggregation (turbidity)” value ([3]; acidic pH, FIG. 1A) of the same compound?
A: it aggregates

Q: And the “state of aggregation (turbidity)” value ([3]; pH 7.2, FIG. 1A)?
A: non-aggregated water soluble

Q: What about the “% MPS precipitated” value [4] of the same compound?
A: 97%

Q: And the “surface activity (surface tension)” value [5]?
A: surface active at all concentrations used

Q: And the Incidence [6]?
A: 7/9

Q: What about the “MDD (mean disease duration)” value [6] of the same compound?
A: 10.9 ± 2.7 days

Q: And the “MDO (mean day of onset)” value [6]?
A: 16.7 ± 1.83

Q: What about the “MMS (mean maximal score)” value [6] of the same compound?
A: 2.35 ± 0.39

Q: What about the “Mean Score” value [6] of the same compound?
A: 0.861 ± 0.105

Q: And the “#dead” value ([7]; 50 mg/kg BW days 10, 14, 18)?
A: 3

Q: And the Incidence ([7]; 50 mg/kg BW days 10, 14, 18)?
A: 9/9

Q: What about the “MDD (mean disease duration)” value ([7]; 50 mg/kg BW days 10, 14, 18) of the same compound?
A: 10.11 ± 1.92 days

Q: What about the “MDO (mean day of onset)” value ([7]; 50 mg/kg BW days 10, 14, 18) of the same compound?
A: 12.67 ± 0.65

Q: What about the “MMS (mean maximal score)” value ([7]; 50 mg/kg BW days 10, 14, 18) of the same compound?
A: 4.44 ± 0.50

Q: What about the “Mean Score” value ([7]; 50 mg/kg BW days 10, 14, 18) of the same compound?
A: 2.62 ± 0.208

Q: And the survival / mortality ([7]; 50 mg/kg BW days 10, 14, 18, FIG. 6A)?
A: there was mortality

Q: And the “mean clinical score at day 19” value ([7]; 50 mg/kg BW days 10, 14, 18, FIG. 6B)?
A: ~3

Q: With triamcinolone acetonide phosphate as the compound, how does the “acidic corticosteroid retained by the liposome” value [8] read?
A: more than 75%
